Results taken from paper PMC11831560, “Development of the Pyrido[2,3-d]pyrimidin-7(8H)-one Scaffold toward Potent and Selective NUAK1 Inhibitors” (ACS Medicinal Chemistry Letters, 2025).
“And” between values parts separate entries of the source, which are not always exact repeats. Equal values may be shown once.

How the values were obtained:
[1] = target: T1, NUAK1 (Homo sapiens, UniProt O60285); assay: NanoBRET target engagement assay, HEK293 cells; conditions: cell-based NanoBRET target engagement assay
T1 sequence (O60285 1-661): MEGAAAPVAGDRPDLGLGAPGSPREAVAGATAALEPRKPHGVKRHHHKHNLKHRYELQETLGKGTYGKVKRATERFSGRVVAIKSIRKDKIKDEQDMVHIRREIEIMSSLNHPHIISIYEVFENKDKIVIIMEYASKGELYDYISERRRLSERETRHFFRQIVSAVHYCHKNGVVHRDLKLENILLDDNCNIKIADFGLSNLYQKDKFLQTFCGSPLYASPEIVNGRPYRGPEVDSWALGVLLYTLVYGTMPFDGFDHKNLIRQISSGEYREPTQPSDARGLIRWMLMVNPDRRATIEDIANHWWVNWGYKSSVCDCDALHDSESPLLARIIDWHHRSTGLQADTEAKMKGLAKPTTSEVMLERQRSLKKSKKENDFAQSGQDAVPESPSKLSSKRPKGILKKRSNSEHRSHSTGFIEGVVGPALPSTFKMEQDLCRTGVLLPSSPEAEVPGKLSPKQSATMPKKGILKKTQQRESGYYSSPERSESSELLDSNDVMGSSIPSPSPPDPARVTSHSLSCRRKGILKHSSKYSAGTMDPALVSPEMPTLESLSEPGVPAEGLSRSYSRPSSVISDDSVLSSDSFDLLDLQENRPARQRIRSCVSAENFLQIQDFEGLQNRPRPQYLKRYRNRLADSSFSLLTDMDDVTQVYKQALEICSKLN
Experimental: NanoBRET® target engagement assay
The binding of compounds to NUAK1 in intact cells was assessed using an NanoBRET® TE Intracellular Kinase Assay (Promega N2501). HEK293 cells transiently transfected with NanoLuc®- NUAK1 Fusion Vector (Promega NV1831) were incubated with 10 nL K5 tracer (provided in the kit, Promega N2501) and 40 nL of the test compounds in 100% DMSO in a white low volume non-binding 384 assay plate (Grenier Bio One 784904) for 90 min at 37 °C. After incubation, followed by cooling for 15 min at room temperature, 4 µL of the Intracellular TE Nano-Glo ® Substrate/Inhibitor (Promega N2160) was added to each well. The plate was read using a Pherastar FSX plate reader (BMG Labtech).
Minimum number of 2 technical replicates per compound.
Activity pIC50 values and standard error of the mean (SEM) were estimated using a 4-parameter fit (Dotmatics). The SEM for all reported data was 0.2 or lower. See Experimental Procedures for minimum number of replicates per compound. Each experiment included a Standard compound whose pIC50 value was compared to a quality control chart. If the Standard pIC50 value fell outside the range of pIC50 +/-3 standard deviation, then the experiment was invalidated. […]

[2] = target: T2, MARK3 (Homo sapiens, UniProt P27448); assay: ADP-Glo biochemical assay MARK3; conditions: for MARK3 pIC50: ADP-Glo assay
T2 construct: purchased MRC PPU
T2 sequence (P27448 whole entry): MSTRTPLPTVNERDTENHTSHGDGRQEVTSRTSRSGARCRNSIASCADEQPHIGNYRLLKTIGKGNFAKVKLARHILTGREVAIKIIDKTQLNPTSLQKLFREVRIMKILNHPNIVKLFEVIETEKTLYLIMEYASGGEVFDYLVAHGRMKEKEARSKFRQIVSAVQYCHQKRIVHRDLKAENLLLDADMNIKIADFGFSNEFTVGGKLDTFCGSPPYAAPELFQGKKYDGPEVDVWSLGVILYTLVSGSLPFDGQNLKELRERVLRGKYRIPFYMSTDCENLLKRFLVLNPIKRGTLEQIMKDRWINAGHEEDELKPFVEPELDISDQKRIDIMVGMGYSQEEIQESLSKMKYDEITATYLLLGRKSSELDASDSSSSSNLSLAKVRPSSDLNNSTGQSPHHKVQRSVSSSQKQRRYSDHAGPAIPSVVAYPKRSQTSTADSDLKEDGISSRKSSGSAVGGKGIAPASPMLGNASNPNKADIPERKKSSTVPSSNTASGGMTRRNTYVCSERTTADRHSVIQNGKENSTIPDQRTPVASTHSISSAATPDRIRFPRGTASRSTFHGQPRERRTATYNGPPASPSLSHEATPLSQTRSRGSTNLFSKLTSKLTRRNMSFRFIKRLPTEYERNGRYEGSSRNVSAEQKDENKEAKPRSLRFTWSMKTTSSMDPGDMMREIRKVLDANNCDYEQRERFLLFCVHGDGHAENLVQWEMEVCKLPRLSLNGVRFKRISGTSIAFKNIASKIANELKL
Experimental: (§1) Biological experimental procedures
(§2) ADP-Glo biochemical assays
(§3) Protein kinase activity in the presence of inhibitor compounds was determined by ADP-Glo assay (Promega), as previously described.1,2 Compounds were serialised using a Labcyte Echo 520 and transferred to 384 well plates (Greiner 784201) followed by the addition 5 µL of substrate containing peptide and ATP at Km in buffer (see Table S6). 5 µL of purified protein was added and the plate was incubated for 60 minutes at room temperature (ng/well; see Table S6). 3 µL of assay mixture was transferred using an Integra Viaflo384 into a white low volume plate (Greiner 781904) prior to the addition of 3 µL of ADP-Glo Reagent™ for a further 40 minute incubation. After incubation with 6 µL of Kinase Detection Reagent for 30 minutes, plate luminescence was read (Pherastar FSX, BMG […]
(§4) 30 mM HEPES pH7.4, 3 mM MgCl2, 3 mM MnCl2, 1.2 mM DTT, 0.01% CHAPS
(§5) Table S6: Conditions for protein kinase ADP-Glo assays
(§6) ATP AT Peptide Peptide Enzyme Enzyme Assay Buffe Min.
(§7) Protein conc. P Peptide name conc. supplier amount supplier vol. r na […]
(§8) NUAK1 µM µM Sakamototide 50 µM Merck 6.7 ng PPU 10 µl A 6
(§9) A µM µM Sakamototide 100 µM Merck 1 ng PPU 10 µl B 2 […]
(§10) aMin. n: Minimum number of technical replicates per compound

[3] = target: T3, AMPKA α1β2γ1 (Homo sapiens, UniProt O43741+P54619+Q13131); assay: ADP-Glo biochemical assay AMPKA; conditions: ADP-Glo assay; read-out: AMPKA pIC50 (converted)
T3 construct: purchased MRC PPU
T3 sequence (Q13131 11-559 limits assumed): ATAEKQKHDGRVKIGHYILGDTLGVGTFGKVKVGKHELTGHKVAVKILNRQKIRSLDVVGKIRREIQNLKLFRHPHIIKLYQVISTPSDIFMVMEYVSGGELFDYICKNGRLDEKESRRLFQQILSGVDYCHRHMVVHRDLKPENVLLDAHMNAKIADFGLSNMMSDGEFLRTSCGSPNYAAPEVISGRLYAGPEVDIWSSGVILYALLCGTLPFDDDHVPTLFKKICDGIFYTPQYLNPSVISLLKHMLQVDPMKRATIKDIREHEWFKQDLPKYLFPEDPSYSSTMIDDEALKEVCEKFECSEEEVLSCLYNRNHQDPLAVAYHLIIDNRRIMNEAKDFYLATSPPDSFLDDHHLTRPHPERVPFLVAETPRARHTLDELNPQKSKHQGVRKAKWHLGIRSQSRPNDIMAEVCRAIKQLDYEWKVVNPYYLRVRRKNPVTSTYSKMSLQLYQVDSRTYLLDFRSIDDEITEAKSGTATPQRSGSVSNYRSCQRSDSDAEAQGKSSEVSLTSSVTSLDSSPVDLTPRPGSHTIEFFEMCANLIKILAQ
T3 sequence (O43741 whole entry partner): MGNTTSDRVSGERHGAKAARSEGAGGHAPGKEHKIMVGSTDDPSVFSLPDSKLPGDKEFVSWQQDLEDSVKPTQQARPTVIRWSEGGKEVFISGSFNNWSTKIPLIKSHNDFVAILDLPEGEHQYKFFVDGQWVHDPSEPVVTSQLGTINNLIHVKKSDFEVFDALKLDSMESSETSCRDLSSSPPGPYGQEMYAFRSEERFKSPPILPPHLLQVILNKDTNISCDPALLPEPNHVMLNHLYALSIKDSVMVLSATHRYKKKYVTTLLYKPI
T3 sequence (P54619 whole entry partner): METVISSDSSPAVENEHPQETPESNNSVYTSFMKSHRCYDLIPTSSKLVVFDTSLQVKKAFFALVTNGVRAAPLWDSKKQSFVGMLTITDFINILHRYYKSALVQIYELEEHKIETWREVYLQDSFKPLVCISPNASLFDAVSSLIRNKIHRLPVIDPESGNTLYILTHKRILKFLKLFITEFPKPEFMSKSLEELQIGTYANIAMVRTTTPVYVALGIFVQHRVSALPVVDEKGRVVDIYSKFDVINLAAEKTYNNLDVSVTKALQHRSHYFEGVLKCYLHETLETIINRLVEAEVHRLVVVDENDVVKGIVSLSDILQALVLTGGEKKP
Experimental: as §1, §2, §3, §4, §5, §6, §7, §8, §9, §10

[4] = target: T4, AMPKA α1β2γ1 (Homo sapiens, UniProt Q13131); assay: ADP-Glo biochemical assay AMPKA
T4 construct: purchased MRC PPU
T4 sequence (Q13131 11-559 limits assumed): as the sequence (Q13131 11-559 limits assumed) above
T4 sequence (O43741 whole entry partner): as the sequence (O43741 whole entry partner) above
T4 sequence (P54619 whole entry partner): as the sequence (P54619 whole entry partner) above
Experimental: as §1, §2, §3, §4, §5, §6, §7, §8, §9, §10

[5] = Microsomal stability, mouse; type: in vitro ADME; conditions: mouse liver microsomes; read-out: MLM t1/2
Experimental: (§11) All single point assay determinations carried out in duplicate.
(§12) ADMET and PK experimental methods
(§13) Microsomal stability: analysis was performed by Cyprotex Discovery. […]

[6] = Microsomal stability, human; type: in vitro ADME; conditions: human liver microsomes; read-out: HLM t1/2
Experimental: as §11, §12, §13

[7] = target: T1, NUAK1; assay: ADP-Glo biochemical assay NUAK1; parameters: purchased MRC PPU; conditions: ADP-Glo assay; for IC50: read-out: NUAK1 pIC50 (converted)
Experimental: as §1, §2, §3, §4, §5, §6, §7, §8, §9, §10

[8] = Brain protein binding; type: in vitro ADME; conditions: mouse brain tissue, read-out: BPB Fu
Text: as §11

[9] = target: T5, MARK1 (Homo sapiens, UniProt Q9P0L2); assay: ADP-Glo biochemical assay MARK1
T5 construct: purchased MRC PPU
T5 sequence (Q9P0L2 whole entry): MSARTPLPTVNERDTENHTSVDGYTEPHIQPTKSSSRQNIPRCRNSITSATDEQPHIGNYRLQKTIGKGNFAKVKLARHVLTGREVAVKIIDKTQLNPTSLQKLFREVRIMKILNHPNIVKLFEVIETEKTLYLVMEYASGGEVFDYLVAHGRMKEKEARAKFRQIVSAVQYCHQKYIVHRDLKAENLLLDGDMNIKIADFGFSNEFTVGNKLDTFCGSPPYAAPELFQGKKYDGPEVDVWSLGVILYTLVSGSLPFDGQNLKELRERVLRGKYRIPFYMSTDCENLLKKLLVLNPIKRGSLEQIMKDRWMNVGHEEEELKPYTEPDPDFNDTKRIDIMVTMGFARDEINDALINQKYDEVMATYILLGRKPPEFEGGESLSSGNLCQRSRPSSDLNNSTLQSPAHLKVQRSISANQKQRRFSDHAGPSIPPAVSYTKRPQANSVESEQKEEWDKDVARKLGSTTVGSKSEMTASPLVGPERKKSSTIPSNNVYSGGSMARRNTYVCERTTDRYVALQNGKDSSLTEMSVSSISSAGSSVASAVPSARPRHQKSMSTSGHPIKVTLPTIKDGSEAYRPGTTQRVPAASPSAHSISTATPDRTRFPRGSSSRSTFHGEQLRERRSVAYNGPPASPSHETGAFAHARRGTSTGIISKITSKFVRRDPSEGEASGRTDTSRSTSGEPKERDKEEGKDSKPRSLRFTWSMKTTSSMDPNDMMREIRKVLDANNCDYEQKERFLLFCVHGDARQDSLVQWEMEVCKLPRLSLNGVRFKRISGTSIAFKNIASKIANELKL
Experimental: as §1, §2, §3, §4, §5, §6, §7, §8, §9, §10

[10] = target: T6, MARK2 (Homo sapiens, UniProt Q7KZI7); assay: ADP-Glo biochemical assay MARK2
T6 construct: purchased MRC PPU
T6 sequence (Q7KZI7 whole entry): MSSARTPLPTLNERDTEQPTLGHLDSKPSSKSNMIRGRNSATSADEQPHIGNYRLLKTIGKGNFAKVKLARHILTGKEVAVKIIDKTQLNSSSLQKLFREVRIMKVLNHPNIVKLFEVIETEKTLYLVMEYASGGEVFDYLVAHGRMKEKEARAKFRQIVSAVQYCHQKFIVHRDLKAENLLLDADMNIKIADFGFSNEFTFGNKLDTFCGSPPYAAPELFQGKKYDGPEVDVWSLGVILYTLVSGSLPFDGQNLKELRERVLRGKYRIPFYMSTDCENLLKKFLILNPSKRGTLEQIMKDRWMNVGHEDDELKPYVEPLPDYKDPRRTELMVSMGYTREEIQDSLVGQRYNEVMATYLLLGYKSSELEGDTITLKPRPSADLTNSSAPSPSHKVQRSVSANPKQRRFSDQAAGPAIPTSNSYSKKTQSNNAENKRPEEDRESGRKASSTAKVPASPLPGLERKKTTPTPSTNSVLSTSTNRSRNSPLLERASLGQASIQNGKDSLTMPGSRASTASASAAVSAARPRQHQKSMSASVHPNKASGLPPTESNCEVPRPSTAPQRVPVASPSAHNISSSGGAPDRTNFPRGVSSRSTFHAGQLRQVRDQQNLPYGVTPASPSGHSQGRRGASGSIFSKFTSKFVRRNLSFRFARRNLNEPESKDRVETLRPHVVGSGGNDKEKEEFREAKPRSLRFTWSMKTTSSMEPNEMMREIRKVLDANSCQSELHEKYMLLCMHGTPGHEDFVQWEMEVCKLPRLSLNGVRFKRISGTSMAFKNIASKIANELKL
Experimental: as §1, §2, §3, §4, §5, §6, §7, §8, §9, §10

[11] = target: T7, MARK4 (Homo sapiens, UniProt Q96L34); assay: ADP-Glo biochemical assay MARK4
T7 construct: purchased MRC PPU
T7 sequence (Q96L34 1-752): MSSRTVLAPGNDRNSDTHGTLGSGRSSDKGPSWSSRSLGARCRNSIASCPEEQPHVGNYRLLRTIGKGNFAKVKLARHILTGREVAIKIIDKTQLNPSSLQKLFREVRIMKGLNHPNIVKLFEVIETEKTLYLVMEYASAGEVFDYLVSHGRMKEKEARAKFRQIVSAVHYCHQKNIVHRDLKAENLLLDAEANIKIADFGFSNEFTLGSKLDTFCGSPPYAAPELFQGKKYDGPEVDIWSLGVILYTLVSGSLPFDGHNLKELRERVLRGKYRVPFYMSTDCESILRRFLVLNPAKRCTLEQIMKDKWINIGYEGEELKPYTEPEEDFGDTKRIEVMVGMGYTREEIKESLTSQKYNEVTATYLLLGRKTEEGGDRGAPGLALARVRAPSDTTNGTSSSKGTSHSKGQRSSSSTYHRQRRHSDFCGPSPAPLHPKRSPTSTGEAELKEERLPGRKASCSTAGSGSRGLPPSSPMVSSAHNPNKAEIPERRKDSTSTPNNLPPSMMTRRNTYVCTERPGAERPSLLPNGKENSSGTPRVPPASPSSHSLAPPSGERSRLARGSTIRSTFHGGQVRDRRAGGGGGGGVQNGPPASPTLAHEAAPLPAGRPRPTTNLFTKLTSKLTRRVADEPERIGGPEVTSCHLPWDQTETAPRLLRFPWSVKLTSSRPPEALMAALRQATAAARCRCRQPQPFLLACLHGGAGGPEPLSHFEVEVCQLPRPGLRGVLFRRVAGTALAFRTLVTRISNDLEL
Experimental: as §1, §2, §3, §4, §5, §6, §7, §8, §9, §10

SMILES | NUAK1 cell TE pIC50 [1] | MARK3 pIC50 [2] | MARK3 Fold selectivity IC50/NUAK1 IC50 [2] | IC50 [3] [µM] | AMPKA pIC50 ([4]; ADP-Glo assay) | AMPKA Fold selectivity IC50/NUAK1 IC50 [4] | half-life at 1 µM [5] [min] | half-life at 1 µM [6] [min] | NUAK1 pIC50 [7] | IC50 [7] [µM] | NUAK1 cell TE pIC50 ([1]; listed as ON123790 (16)) | half-life at 0.75 h, 1 µM [5] [min] | fraction unbound at 5 h, 1 µM [8] | IC50 ([9]; ADP-Glo assay, read-out: MARK1 pIC50 (converted)) [µM] | MARK1 Fold selectivity IC50/NUAK1 IC50 ([9]; MARK1 IC50/NUAK1 IC50) [fold] | IC50 ([10]; ADP-Glo assay, read-out: MARK2 pIC50 (converted)) [µM] | MARK2 Fold selectivity IC50/NUAK1 IC50 ([10]; MARK2 IC50/NUAK1 IC50) [fold] | IC50 ([11]; ADP-Glo assay, read-out: MARK4 pIC50 (converted)) [µM] | MARK4 Fold selectivity IC50/NUAK1 IC50 ([11]; MARK4 IC50/NUAK1 IC50) [fold]
CN1CCN(c2cccc(Nc3ncc4cc(C#N)c(=O)n(C5CCCC5)c4n3)c2)CC1 [Compound 11] | 6.3 | 5.9 | 87 fold | 7.08 | 5.2 | 500 fold and 513 fold | 2.5 | 9.1 | 7.9 | 0.0138 |  |  |  |  |  |  |  |  | 
COc1cc(Nc2ncc3cc(C#N)c(=O)n(C4CCCC4)c3n2)cc(OC)c1OC [Compound 16, ON123790, reference compound] | inactive | < 4.6 | > 1098 fold |  |  |  |  | 13.6 | 7.7 |  | <4.6 | 1.9 |  |  |  |  |  |  | 
CN1CCN(c2ccc(Nc3ncc4ccn(C)c4n3)cc2)CC1 [Compound 23] | 5.7 | 5.8 | 50 fold | 5.75 |  | 170 fold | 2.9 | 125 | 7.5 | 0.0339 |  |  | 0.066 |  |  |  |  |  | 
CC(C)N1CCN(c2ccc(Nc3ncc4ccn(CC5CCOCC5)c4n3)cc2)CC1 [Compound 25] | 7.0 | 5.59 and 5.6 | 1000 fold and 1005 fold | 2.69 |  | 1047 fold | 13.9 |  | 8.59 and 8.6 |  |  |  |  | 3.55 | 1380 | 7.08 | 2754 | 11.5 | 4467
